From a melting point compilation (Tetko et al.; mined from patent text by program, amines drawn as free bases though some values may be those of a salt) come the findings set out here.

As to `CCN(CC)C(=O)CN1C(=O)C(NC(=O)Nc2cccc(OC)c2)N=C(c2ccccc2)c2ccccc21` (stereo not drawn), the melting point (in general, the temperature, or range, at which the solid turns liquid) is 222 to 224 °C.

`Cc1c(Cc2ccc(Cl)cc2)sc2nc(N)[nH]c(=O)c12` displayed a melting point of 300 to 320 °C.

Molecule `Cc1cnc2c(c1)n(C(C)C)c(=O)n2-c1ccc(Oc2nc3cccnc3n2C)cc1` gave a melting point of 252 °C.

In the case of `CC1(C)CCC(C)(C)c2nc3c(nc21)CCc1c(-c2ccc(C(=O)O)cc2)cn(Cc2cccnc2)c1-3`, the melting point is 149 to 151 °C.

For `O=[N+]([O-])C=C1CN=C(c2ccccc2)c2sccc2N1`, the melting point lay in the range of 160 to 163 °C.

In turn, `CCN(CC)c1ccc(C(=O)Cn2ncc(-c3ccc(S(C)(=O)=O)cc3)c(-c3ccc(F)cc3)c2=O)cc1` returned a melting point of 105 to 108 °C.

`CCOc1cc(-c2cc(C(F)(F)F)nc(-c3ccnc(-c4cccc(S(N)(=O)=O)c4)c3)n2)ccc1C(F)(F)F` gave a melting point of 224 °C.

As for `O=C1Nc2ccccc2C1=Cc1ccccn1`, the melting point fell in the range of 204 to 205 °C.

Consider `COc1ccc(C(C)=Nc2ccc(C3=NNC(=O)CC3)cc2)c(O)c1`, for which the melting point is 269 °C.

Turning to `CCOC(=O)C1=C(C)NC(NC(C)=O)=C(C(=O)OCC)C1C` (stereo not drawn), the melting point worked out at 105 °C.

With `CCCCCCCCCCC[C@@H](O)CCO`, the melting point was 59 to 60 °C.

`O=C(NC(=S)NC1Cc2ccccc2C1)c1ccccc1`: the melting point is 130 to 135 °C.

In turn, `COC(=O)c1nc(-c2ccc(Cl)c(OC)c2F)cc(NC(C)=O)c1O` showed a melting point of 168 to 172 °C.

The molecule `Oc1cc2c(-c3ccccc3)csc2c(Cl)c1Cl` had a melting point of 157 to 159 °C.

`CNC(=O)c1ccsc1Nc1nc(Nc2ccc3c(c2)CCN(CCOC)CC3)ncc1Cl` gave a melting point of 217 to 221 °C.

The molecule `CS(=O)(=O)Oc1cc(C=CC(=O)c2ccccc2)cc([N+](=O)[O-])c1OS(C)(=O)=O` gave a melting point of 181 to 184 °C.

In turn, `CCOc1ccc(O)c(CC(=O)OC)c1` returned a melting point of 83 to 84 °C.

`FC(F)(F)c1ccc(-n2ccc3cnccc32)c(Cl)c1` yielded a melting point of 160 to 161 °C.

`Cc1noc(C)c1Cn1cc(NC(=O)[C@@H](C)c2ccccc2)cn1` displayed a melting point of 108 to 110 °C.

`Cc1nnc(SCc2nc(NCCCOc3cccc(CN4CCCCC4)c3)n(C)n2)s1` yielded a melting point of 63 °C.

On to `CCN(CC)CC(=O)Nc1ccc(NC(=O)CN(CC)CC)c2c1C(=O)c1ccccc1C2=O`, for which the melting point lay within 85 to 86 °C.

`CN(C1CCN(CCCC(F)(F)F)CC1)S(=O)(=O)c1ccc(Nc2nccc(Nc3ccc(F)c(F)c3)n2)cc1`: the melting point is 192 °C.

In turn, `CCOC(=O)C1=C(C(OCC)OCC)NC(C)=C(C(=O)OCc2ccccc2)C1c1ccccc1[N+](=O)[O-]` (stereo not drawn) displayed a melting point of 103 to 104 °C.

`COc1ccc(Cn2c(N)c(NC(=O)C(C)C)c(=O)[nH]c2=S)cc1OCc1ccccc1`: the melting point fell in the range of 240 to 244 °C.

For `O=S(=O)(Cc1coc(/C=C/c2ccccc2)n1)c1ccc(CCCn2ccnc2)cc1`, the melting point lay in the range of 116 to 117 °C.

In turn, `O=C(O)C(=O)CC(=O)c1cccn1CCCCc1ccccc1` came in with a melting point of 119 to 121 °C.

`Clc1cnc(Oc2cccc(Oc3ncc(Cl)cn3)c2)nc1` gave a melting point of 120 °C.

With `CC(=O)Nc1cncc(NC(=NC#N)NC2(c3ccccc3)CCC2)c1`, the melting point lay in the range of 207 to 208 °C.

`Cc1ccc(C(F)(F)F)c2sc(Sc3ccc4c(c3)CCC3N(C)C(=O)CCC43C)nc12` (single isomer, unassigned; (+)) yielded a melting point of 50 to 54 °C.

`O=C(CCCCCOc1ccccc1OCc1ccccc1)C(F)(F)F`: the melting point was 31 to 32 °C.

Turning to `Oc1ccc(I)c(-c2cc(O)ccc2I)c1`, the melting point was in the range of 181 to 182 °C.

As to `COc1ccc(-c2cnccn2)cc1`, the melting point lay in the range of 86 to 87 °C.

Molecule `COc1cccc(Oc2ccc3ccc(N)nc3n2)c1` came in with a melting point of 160 °C.

`c1cc2c(c(N3CCNCC3)n1)CCO2` came in with a melting point of 89.5 °C.

On to `CNc1ccc(CCc2ccc(OCc3ccccc3)c(OCc3ccccc3)c2)cc1`, for which the melting point was 61 to 65 °C.

Molecule `Nc1ncc(-c2ccc(F)c(F)c2)nc1C(=O)Nc1cccnc1` registered a melting point of 232 to 234 °C.

`Cc1cc(Cl)cc(C(=O)NC(C)C)c1NC(=O)c1cc(Br)nn1-c1ncccc1Cl` yielded a melting point of 159 to 161 °C.

Take `CCCCC1CCc2cc(C(=O)C(C)C)cc3c(CCN4CCN(c5cc(C)ccn5)CC4)c(C)n1c23` (stereo not drawn): the melting point is 150 °C.

`CS(=O)(=O)NCCCCn1c(CC2CC2)nc2c(N)nc3ccccc3c21` returned a melting point of 200 to 201 °C.

`NC(=O)c1cc(-c2cccc(Cl)c2)sc1N` returned a melting point of 190 to 192 °C.

For `Nc1nnc(Cc2cccc(C(F)(F)F)c2)s1`, the melting point lay within 174 to 176 °C.

`O=C(C=Cc1ccccc1O)c1ccccc1` showed a melting point of 148 to 149 °C.

`CCOC(=O)CCC1CCC(=O)N1` (stereo not drawn) returned a melting point of 60 to 61 °C.

Molecule `CCCCCCCCCCCCCCCCCC(=O)c1ccc(C2=NC(C)(C)CO2)c(Cl)c1` showed a melting point of 57 to 60 °C.

With `CCCCCCCC1=CCC(c2cc(F)c(F)c(F)c2)C=C1` (stereo not drawn), the melting point was determined as 14 °C.

In turn, `CC(=O)OCc1nc2cc(Cl)c(CBr)cc2c(=O)[nH]1` returned a melting point of 190 to 195 °C.

With `CCOC(=O)C1=C(C(=O)OCC)c2c(OC)ccc(Br)c2C1`, the melting point is 99 to 101 °C.

Consider `CNn1cc(C(=O)O)c(=O)c2cc(F)c(N3CCN(C)CC3)cc21`, for which the melting point lay in the range of 299 to 301 °C.

Molecule `C=CC1CCC(C2CCC3c4ccc(OCC)c(F)c4OC3C2)CC1` (stereo not drawn) gave a melting point of 132 °C.

Molecule `CCOc1ccc(Oc2c([N+](=O)[O-])cc(C(=O)OC)cc2[N+](=O)[O-])cc1` registered a melting point of 101 to 103 °C.

In turn, `CC1(C)CCC(C)(C)c2cc(N(CCCCO)C(=O)Nc3cccc(C(=O)O)c3)ccc21` came in with a melting point of 124 to 125 °C.

Turning to `C=CCN1CN(C(=O)c2c(F)cccc2F)C(=O)N(c2ccc(Cl)cc2)C1`, the melting point is 87 to 88 °C.

Consider `O=C(O)c1sc2ccc3c(c2c1Cl)O[C@@H](CO)CO3`, for which the melting point fell in the range of 236 to 237 °C.

Molecule `CCCC(=O)Nc1cc(/C=C/C(=O)N2CC(CCl)c3ccc(NC(=O)OCc4ccc([N+](=O)[O-])cc4)cc32)n(C)c1` (stereo not drawn) gave a melting point of 207 to 210 °C.

Molecule `Cc1cccc(-c2[nH]c(C(C)C)nc2-c2ccc(F)c(-c3ccc[nH]3)c2)n1` gave a melting point of 103 to 106 °C.

`O=Cc1ccc(O)cn1` came in with a melting point of 134 to 135 °C.

The molecule `CC(C)NC(=O)N1C2=NC(C)(C)N(C)C(=O)N2c2ccccc21` gave a melting point of 93 to 96 °C.

Molecule `CCCCCCn1c2ccccc2c2ccc(CO)cc21` came in with a melting point of 54 to 55 °C.

For the molecule `Cc1noc(NS(=O)(=O)c2ccccc2-c2ccc(-c3ncco3)cc2CN2CCN(c3ccccc3)C2=O)c1C`, the melting point fell in the range of 140 to 150 °C.

`CCN(CC)C(=O)Nc1ccc(Oc2ccc3sncc3c2)c(Cl)c1` returned a melting point of 141 °C.

`O=S1(=O)c2cccc3cccc(c23)N1CCCN1CCN(c2ccccc2O)CC1` showed a melting point of 128 °C.

The molecule `C#CCn1c(=O)oc2cc(Cl)c(-c3ccc(C(F)(F)F)n(C)c3=O)cc21` displayed a melting point of 187 to 189 °C.

Molecule `CCCCCCCCCCCc1cc2ccc(C(=O)OCC(O)CO)cc2[nH]1` (racemic) gave a melting point of 110 to 112 °C.

The molecule `Nc1cccc(-c2ccc(CCN3CCN(C(=O)NC4CCCCC4)CC3)cc2)n1` displayed a melting point of 180 to 182 °C.

Turning to `Clc1ccc(-c2cc(-c3ccccc3)c(-c3ccccc3)s2)cc1Cl`, the melting point fell in the range of 101 to 103 °C.

Turning to `Cc1cc(N2CCN(c3ccccc3)CC2)c(C#N)c(=O)[nH]1`, the melting point was over 270 °C.

Consider `OCCNc1nc(Cl)nc2cccc(Br)c12`, for which the melting point is 165 to 167 °C.

In turn, `C=CC(=O)OCCOC(=O)Nc1ccccc1` gave a melting point of 66 to 68 °C.

Molecule `CCOC(=O)c1sc(Oc2ccc(Cl)cc2Cl)nc1C` gave a melting point of 71 to 73 °C.

In turn, `O=C(O)c1ccc(OCC2CC(=O)N(c3ccc(OC4CCCCC4O)cc3)C2)cc1` (stereo not drawn) gave a melting point of 203 to 208 °C.

For the molecule `CC1Nc2ccc(-c3cccc(F)c3)cc2C(C)(C)O1` (stereo not drawn), the melting point was 139 to 140 °C.

Molecule `CCCC[Si](C)(C)CCCSCCCNC(=O)n1cc(F)c(=O)[nH]c1=O` showed a melting point of 71 to 72 °C.

The molecule `O=C(Nc1cc(-c2ccc(-c3ccccc3)cc2)on1)c1c(Cl)cccc1Cl` came in with a melting point of 256 to 259 °C.

The molecule `CCOC(=O)C1=C(C)N(C(C)=O)C(c2csc(C)n2)=NC1c1cccc(OC)c1` (stereo not drawn) displayed a melting point of 114 to 116 °C.

With `CCCCC(=O)Nc1ccc(C(=O)Nc2ccc3cc(CN4CCCC4)cnc3c2C)cc1`, the melting point fell in the range of 206 to 207 °C.

As to `CCNc1nc(C)c(C(=O)c2ccc(Cl)c([N+](=O)[O-])c2)s1`, the melting point was 195 °C.

Molecule `CC(=O)OCc1cc(=O)c(Oc2ccc(Cl)cc2)c(-c2ccc(S(C)(=O)=O)cc2)o1` registered a melting point of 115 °C.

On to `CC(C)(c1ccc(OCCO)cc1)c1ccc(OCCO)cc1`, for which the melting point lay within 110 to 111 °C.

`CCCCCC(=O)c1ccc(C(=O)Nc2ccc3cc(CN4CCCC4)cnc3c2C)cc1`: the melting point turned out to be 175 °C.

In turn, `c1ccc(NN2Cc3ccccc3C2)nc1` showed a melting point of 130 to 131 °C.

Molecule `CC(=O)NCC1CC1c1cccc2nscc12` (stereo not drawn) gave a melting point of 96 to 97 °C.

`O=[PH](c1ccc(Cl)cc1)c1ccc(Cl)cc1` returned a melting point of 124 °C.

`CCC1CC(=O)C=C2CCC3C4CCC(=O)C4(C)CCC3C21C` (stereo not drawn) returned a melting point of 168 °C.

Regarding `CS(=O)(=O)c1ccc(-c2cccn2-c2ccc(OC(F)(F)F)cc2)cc1`, the melting point was 150 to 152 °C.

In turn, `CN1CCN(C2=Nc3cc(C(F)(F)F)ccc3Nc3cscc32)CC1` came in with a melting point of 202 °C.

`O=S(=O)(Cl)c1ccc(SSc2ccc(S(=O)(=O)Cl)cc2)cc1` yielded a melting point of 139 °C.

Regarding `Nc1ccc2oc([N+](=O)[O-])c(-c3ccccc3)c2c1`, the melting point was in the range of 125 to 127 °C.

Molecule `CCCCCC(=O)NS(=O)(=O)/C=C/c1cc(OC(C)C)nn1Cc1ccc(Cl)cc1Cl` registered a melting point of 73 to 75 °C.
